Experimental data published in patent publication US6916793B2, “Selenium-containing pro-drugs for cancer therapy” (priority 1999, dated 2005).
Like-named read-outs stand apart in the source and are kept apart here.

Legend:
keratinocytes = conditions: at the concentrations studied; cited from earlier work
OVCAR-8 = test: MTT assay, serial dilutions of SeMet on transduced cells; format: cell-based, human; conditions: for IC50: Homo sapiens
Procedure: (§1) Cells (4×10^3) of various tumor lines were seeded onto 96-well plates. After 24 hours, serial dilutions of the methioninase expressing vector (rAd-MET) or a control vector containing no methioninase encoding nucleotide sequence (rAd) were added to the wells with and without 20 μM of selenomethionine (SeMet) (20 μM). After incubating the plates for three (3) days, the medium was replaced with 0.5 mg/ml MTT for two (2) hours and analyzed using a microplate reader (BioRad), in a standard MTT assay. Results were recorded as percentage of surviving cells.
(§2) The cell lines were also evaluated for their response to varying concentrations of SeMet. In these protocols, the cells were seeded as above into 96-well plates and infected with 4×10^5 pfu of rAd-MET or control rAd. After 24 hours, serial dilutions of SeMet were added and three (3) days later cytotoxicity was evaluated with the MTT assay as described in Example 2. The results are shown for OVCAR-8 cells in FIG. 6.

A549 = test: as above; format: cell-based; conditions: Homo sapiens
Procedure: as §1, §2

BxPC-3 = test: as above; format: cell-based; conditions: Homo sapiens
Procedure: as §1, §2

EKVX = test: as above; format: cell-based; conditions: Homo sapiens
Procedure: as §1, §2

Hep-2 = test: as above; format: cell-based; conditions: Homo sapiens
Procedure: as §1, §2

MIA PaCa-2 = test: as above; format: cell-based; conditions: Homo sapiens
Procedure: as §1, §2

[1] = tested on: A549 human lung cancer cells; test: Combined variation of rAd-MET and SeMet, percentage of surviving cells; format: cell-based
Procedure: The experiments described in Examples 2 and 3 were performed on A549 human lung cancer cells using varying concentrations of SeMet from 0-40 μM and of virus rAd-MET titer of 0-8×10^5 pfu using rAd as a control. Percentage of surviving cells was again used as an index of efficacy.

A549 cells [2] = test: ROS generation, lucigenin-dependent chemiluminescence; format: cell-based, human; conditions: for chemiluminescence relative to control: 30 minutes
Procedure: It is believed that selenium cytotoxicity is mediated by generation of reactive oxygen species (ROS). This can be measured by standard techniques which employ lucigenin-dependent chemiluminescence as described by Yan, L., et al., Biochem Pharmacol (1993) 45:429-437, cited above.
A549 cells were transduced with rAd-MET at MOI of 50, 24 hours before measurement. The cells (1×10^6) were incubated in 1 ml RPMI in the presence of SeMet with or without 10 units of superoxide dismutase (SOD) for 30 minutes. Lucigenin (50 μg) was added to the cell suspension just prior to measurement and integrated chemiluminescence was measured for 10 seconds, three times, using a TD21 luminometer (Turner Designs).

A549 cells [3] = test: Combined effect of SeMet with BCNU, cell survival; format: cell-based, human; conditions: A549 transfected with rAd-MET, 20% FBS
Procedure: A549 cells that had been transfected with rAd-MET were cultured in RPMI with 20% FBS with and without 8 μM SeMet. In each case, duplicate samples were cultured without BCNU and in the presence of 300 μM BCNU. Cell survival was determined […]. With no treatment, 100% of the cells survived; in the presence of SeMet alone, 80% of the cells survived. In the absence of SeMet, but in the presence of BCNU, 55% cell survival was obtained; in the presence of 8 μM SeMet and 300 μM BCNU, less than 10% of the cells survived. Thus, SeMet dramatically enhances the effect of BCNU.

A549 cells [4] = test: Combined effect of SeMet with doxorubicin, cell survival; format: cell-based, human; conditions: A549 transfected with rAd-MET, 10% FBS
Procedure: In a similar experiment, A549 cells that had been transfected with rAd-MET were cultured in RPMI with 10% FBS in the presence and absence of 4 μM SeMet and with and without 0.4 μM doxorubicin. In the presence of doxorubicin alone, a 75% cell survival rate was obtained; when SeMet was present alone, a 60% cell survival rate was obtained.

human tumor cell lines = test: MTT assay, summary statements over all tumor cell lines; format: cell-based; conditions: virtually all cell lines
Procedure: as §1
The cell lines tested were human cancer cell lines OVCAR-8 (ovarian cancer), A549 and EKVX (lung cancer), Hep-2 (head and neck cancer), MIA PaCa-2 and BxPC-3 (pancreatic cancer), human rhabdomyosarcoma cell line A204 and human prostate cell line PC-3. The results with respect to the OVCAR-8 cell line and cell lines A204, and PC-3 are shown in FIGS. 2, 3 and 4 in X/Y graphs; FIG. 5 is a bar graph of the results with respect to the A549 cell line.
as §2, with “The results are shown for OVCAR-8 cells in FIG. 6.” left out

## NCC[Se][Se]CCN [selenocystamine]
keratinocytes
  cytotoxicity in keratinocytes: cytotoxic
  induction of apoptosis in keratinocytes: induced apoptosis

## C[Se]CC[C@H](N)C(=O)O [SeMet, selenomethionine]
OVCAR-8; OVCAR-8, read-out: SeMet IC50 (μM)
  IC50: 224 µM
OVCAR-8; OVCAR-8, read-out: SeMet IC50 (μM), OVCAR-8 transduced with Control-rAd 4×10^5 pfu
  IC50: 170 µM
OVCAR-8; OVCAR-8, read-out: SeMet IC50 (μM), OVCAR-8 transduced with rAd-MET 4×10^5 pfu
  IC50: 0.59 µM
OVCAR-8; OVCAR-8 cells, FIG. 6
  lowering of IC50 for SeMet in the presence of rAd-MET as compared to control rAd: lowered over a thousandfold
A549; A549, read-out: SeMet IC50 (μM)
  IC50: 486 µM
A549; A549, read-out: SeMet IC50 (μM), A549 transduced with Control-rAd 4×10^5 pfu
  IC50: 327 µM
A549; A549, read-out: SeMet IC50 (μM), A549 transduced with rAd-MET 4×10^5 pfu
  IC50: 0.5 µM
BxPC-3; BXPC-3, read-out: SeMet IC50 (μM)
  IC50: 312 µM
BxPC-3; BXPC-3, read-out: SeMet IC50 (μM), BxPC-3 transduced with Control-rAd 4×10^5 pfu
  IC50: 223 µM
BxPC-3; BXPC-3, read-out: SeMet IC50 (μM), BxPC-3 transduced with rAd-MET 4×10^5 pfu
  IC50: 3.38 µM
EKVX; read-out: SeMet IC50 (μM)
  IC50: 1360 µM
EKVX; read-out: SeMet IC50 (μM), EKVX transduced with Control-rAd 4×10^5 pfu
  IC50: 686 µM
EKVX; read-out: SeMet IC50 (μM), EKVX transduced with rAd-MET 4×10^5 pfu
  IC50: 1.66 µM
Hep-2; HEp-2, read-out: SeMet IC50 (μM)
  IC50: 411 µM
Hep-2; HEp-2, read-out: SeMet IC50 (μM), Hep-2 transduced with Control-rAd 4×10^5 pfu
  IC50: 387 µM
Hep-2; HEp-2, read-out: SeMet IC50 (μM), Hep-2 transduced with rAd-MET 4×10^5 pfu
  IC50: 1.66 µM
MIA PaCa-2; MIA PaCa-2, read-out: SeMet IC50 (μM)
  IC50: 422 µM
MIA PaCa-2; MIA PaCa-2, read-out: SeMet IC50 (μM), MIA PaCa-2 transduced with Control-rAd 4×10^5 pfu
  IC50: 338 µM
MIA PaCa-2; MIA PaCa-2, read-out: SeMet IC50 (μM), MIA PaCa-2 transduced with rAd-MET 4×10^5 pfu
  IC50: 3.86 µM
[1]; A549, control vector, SeMet 20-40 μM, FIG. 7
  toxicity of selenomethionine itself: slight toxicity
[1]; A549, rAd-MET 4×10^5, SeMet 2.5 μM
  cells survived: 50%
[1]; A549, rAd-MET 8×10^5 pfu, SeMet 5 μM or more
  cell survival: substantially no cells survived
[1]; A549, rAd-MET 5,000 pfu, SeMet 20-40 μM, FIG. 8
  viability: drastically reduced viability
A549 cells [2]; 10 units SOD, 160 μM and 40 μM SeMet
  effect of superoxide dismutase on SeMet-dependent chemiluminescence: inhibited by SOD
A549 cells [2]; A549 transduced with rAd-MET MOI 50, 40 μM SeMet
  chemiluminescence relative to control: 20 times
A549 cells [2]; A549 transduced with rAd-MET MOI 50, 160 μM SeMet
  chemiluminescence relative to control: over 100 times
A549 cells [3]; 8 μM SeMet alone
  cell survival: 80%
A549 cells [4]; 4 μM SeMet alone
  cell survival rate: 60%
Human tumor cell lines
  change in IC50 for SeMet in the presence of rAd-MET: dramatic decrease in IC50
keratinocytes
  cytotoxicity in keratinocytes: not cytotoxic
  induction of apoptosis in keratinocytes: did not induce cellular apoptosis

## N[C@@H](C[Se][Se]C[C@H](N)C(=O)O)C(=O)O [selenocystine]
keratinocytes
  cytotoxicity in keratinocytes: cytotoxic
  induction of apoptosis in keratinocytes: induced apoptosis

## O=[Se](O)O [selenite]
keratinocytes
  cytotoxicity in keratinocytes: cytotoxic
  induction of apoptosis in keratinocytes: induced apoptosis

## COc1cccc2c1C(=O)c1c(O)c3c(c(O)c1C2=O)C[C@@](O)(C(=O)CO)C[C@@H]3O[C@H]1C[C@H](N)[C@H](O)[C@H](C)O1 [doxorubicin, reference compound]
A549 cells [4]; 0.4 μM doxorubicin alone
  cell survival rate: 75%

## O=NN(CCCl)C(=O)NCCCl [BCNU, reference compound]
A549 cells [3]; 300 μM BCNU, no SeMet
  cell survival: 55%
